Measurements taken from patent publication US5670538A, “Use of prodelphinidins for obtaining medicaments intended for the treatment of arthrosis” (Laboratoires Dolisos, priority 1992, dated 1997).
Where two headings read alike, the source gives them in different places.

What was measured:
[1] = tested on: polymorphonuclear cells (PMNs); assay: Production of the superoxide anion by the polymorphonuclear cells (PMNs), reduction of ferricytochrome C; assay type: cell-based; conditions: 0.032 mM; phorbol myristate acetate; no conclusion possible on superoxide inhibition
Protocol: 10. Production of the superoxide anion (O°^2) by the polymorphonuclear cells (PMNs).
This is measured with a double beam spectrophotometer which allows the reduction of ferricytochrome C by O°2 tc be monitored. The incubation medium (2.5 ml) is constituted by PBS buffer containing glucose (7.5 mM), ferricytochrome C (0.956 mM), CaCl2 (2.3 mM), MgCl2 (1.1 mM), 7.5.10^6 of cells and the substance to be tested at a concentration of 0.032 mM. The reaction is triggered by adding phorbol myristate acetate at a final concentration of 0.012 mM and the reduction of the cytochrome C is monitored at 550 nm for 10 minutes. The reference cell contains the same material as that described above with an additional 48 μg of superoxide dismutase (SOD)/ml of medium.

[2] = tested on: human articular chondrocytes; assay: Radioimmunoassay of cartilaginous proteoglycans (PG) produced in tridimensional culture of human chondrocytes; assay type: cell-based; conditions: for PG in the clusters over 12 days: 0-12 days
From the text: The model used for testing the proanthocyanidols, namely the tridimensional culture of human chondrocytes allows chondrorepair to be quantified by the production of matrix substances: type II collagen, proteoglycans, and chondroresorption by the reduction in the levels of prostaglandin E2 and of OH° and O°2 type free radicals produced.
1. Tridimensional culture of human chondrocytes
The technique used has been described in detail (Bassleer et al., 1986).
Briefly, human articular chondrocytes are cultivated in DMEM (Dulbecco's Modification of Eagle's Medium--ICN--Gand, Belgium) with either Ultroser G 1% (GIBCO, Gand, Belgium) or 10% of foetal calf serum (ICN--Gand--Belgium), and 50 μg of ascorbic acid/ml added to it. The cartilage originates from the apparently normal zone of heads of human femur suffering from arthrosis, immediately after an operation carried out to insert a total hip prosthesis; it can also originate from the head of a healthy femur, but which has undergone a traumatism and has had to be replaced. This cartilage is then digested by clostridial collagenase 1 mg/ml (Boehringer-Mannheim, Germany) in a buffer (NaCl 120 mM, CaCl2 1 mM, KCl 5 mM, KH2 PO4 1 mM, NaHCO3 25 mM, glucose 2 mM and Hepes 30 mM, pH 7.4) for 24 hours. After 6 successive washings and centrifugations, the chondrocytes, isolated from their matrix, are cultured in flasks (10^6 cells/2 ml of culture medium) placed on a gyrator (10 rpm). The cultures are kept at 37° C. in an atmosphere of air 95%-CO2 5% (Bassleer et al., 1986). Cultivated under these conditions, after 4 to 5 days the chondrocytes form a tridimensional cluster in each flask. These clusters, which at first have a flocculent appearance, then tend to condense during the culture. After two weeks, their diameter is, in general, from 1 to 2 mm.
The fresh weight of the clusters increases with the duration of the culture, above all during the few first days.
2. Radioimmunoassay of cartilaginous proteoglycans (PG)
The PGs are measured with a radioimmunoassay (RIA) which is specific and sensitive to human cartilaginous PGs (Gysen et al. 1984). The PGs were extracted from human cartilage, according to the methods described by Roughley et al., (1981) and by Bayliss and Venn (1980). The antiserum against the cartilaginous PGs was obtained from the rabbit according to the technique of Vaitukaitis et al. (1971). The radioimmunoassay is carried out in a 0.4 ml volume consisting of 0.1 ml of tracer solution (15000 to 20000 cpm ^125 I-PG, labelled by the chloramine T method (Greenwood, 1973). 0.1 ml of anti-PG antiserum diluted to 1/5000 in phosphate-buffered saline (PBS-50 mM PO4, 150 mM NaCl ), containing BSA (5 g/l bovine serum albumin and 6.7 mM sodium azide) (incubation buffer) and 0.2 ml of several dilutions of the culture medium or of the cluster extract or also of the antigen (0.5 -500 ng/tube).
After four days at 4° C., the free PGs* (radioactive PGs) are separated from the PG*-antibody complexes by double precipitation (Franchimont et al., 1983).
The sensitivity of the assay is 0.6 ng/tube. The accuracy of measurement is of the order of 4%. The coefficients of the intra- and inter assay variation are less than 10% and 20% respectively.
The antibodies are directed against the antigenic determinants of the central protein of PG. There is a complete crossed reaction with human PGs of cartilage from the ribs, vertebral disks and trachea, even with PGs extracted from veins or arteries. There is no cross reaction with glycosaminoglycans or with PGs extracted from foetal tissues or the small PGs from bone.
The PGs are measured directly in the culture medium. As for the chondrocyte clusters, they are washed 3 times in a phosphate-buffered saline (PBS-50 mM PO4, 150 mM NaCl pH 7.4) containing protease inhibitors (Oegema et al., 1975:100 mM 6-aminohexanoic acid, 10 mM EDTA, 50 mM benzamidine hydrochloride, 5.10^-8 M trypsin inhibitor, 6.7 mM sodium azide and 200 U/ml superoxide dismutase). […]

Oc1cc(O)c2c(c1)O[C@H](c1cc(O)c(O)c(O)c1)[C@@H](O)[C@@H]2c1c(O)cc(O)c2c1O[C@H](c1cc(O)c(O)c(O)c1)[C@@H](O)C2 [Substance Ib, GC-(4 alpha→8) GC]
Reduction of ferricytochrome C by PMNs [1]: strongly reduced
PG in the clusters over 12 days ([2]; 1% Ultroser G, 1 μg/ml): 742 ± 62 ng/μg DNA
PG in the clusters over 12 days ([2]; 1% Ultroser G, 10 μg/ml): 931 ± 24 ng/μg DNA
PG in the clusters over 12 days ([2]; 1% Ultroser G, 100 μg/ml): 1108 ± 45 ng/μg DNA
Concentrations of PG in the clusters, effect in words ([2]; 1% Ultroser G, 1 μg/ml): no significant effect
PGs released in the culture medium ([2]; 1% Ultroser G, culture time 0-4 days, 1 μg/ml): 13.0 ± 1.22 μg/μg DNA/96 h
PGs released in the culture medium ([2]; 1% Ultroser G, culture time 0-4 days, 10 μg/ml): 20.4 ± 3.0 μg/μg DNA/96 h
PGs released in the culture medium ([2]; 1% Ultroser G, culture time 0-4 days, 100 μg/ml): 28.2 ± 2.92 μg/μg DNA/96 h
PGs released in the culture medium ([2]; 1% Ultroser G, culture time 4-8 days, 1 μg/ml): 3.45 ± 0.56 μg/μg DNA/96 h
PGs released in the culture medium ([2]; 1% Ultroser G, culture time 4-8 days, 10 μg/ml): 4.78 ± 0.56 μg/μg DNA/96 h
PGs released in the culture medium ([2]; 1% Ultroser G, culture time 4-8 days, 100 μg/ml): 5.65 ± 0.24 μg/μg DNA/96 h
PGs released in the culture medium ([2]; 1% Ultroser G, culture time 8-12 days, 1 μg/ml): 0.72 ± 0.08 μg/μg DNA/96 h
PGs released in the culture medium ([2]; 1% Ultroser G, culture time 8-12 days, 10 μg/ml): 1.00 ± 0.12 μg/μg DNA/96 h
PGs released in the culture medium ([2]; 1% Ultroser G, culture time 8-12 days, 100 μg/ml): 1.32 ± 0.01 μg/μg DNA/96 h
Proteoglycans released during the 12 days of culture, Abs ([2]; 1% Ultroser G, cumulative, 1 μg/ml): 17.2 μg/μg DNA/12 days
Proteoglycans released during the 12 days of culture, Abs ([2]; 1% Ultroser G, cumulative, 10 μg/ml): 26.3 μg/μg DNA/12 days
Proteoglycans released during the 12 days of culture, Abs ([2]; 1% Ultroser G, cumulative, 100 μg/ml): 35.2 μg/μg DNA/12 days
activity at 1 µg/mL ([2]; Homo sapiens, Chondrocyte, 288 h, 1% Ultroser G, cumulative, 1 μg/ml, control = 100, read-out: Proteoglycans released during the 12 days of culture, %): 98%
activity at 10 µg/mL ([2]; Homo sapiens, Chondrocyte, 288 h, 1% Ultroser G, cumulative, 10 μg/ml, control = 100, read-out: Proteoglycans released during the 12 days of culture, %): 149%
activity at 100 µg/mL ([2]; Homo sapiens, Chondrocyte, 288 h, 1% Ultroser G, cumulative, 100 μg/ml, control = 100, read-out: Proteoglycans released during the 12 days of culture, %): 200%
activity at 10 µg/mL ([2]; Homo sapiens, Chondrocyte, foetal calf serum, Table 14, 0-4 days, 10 μg/ml, control = 100%, read-out: PG in the culture medium, % of control): 117%
activity at 100 µg/mL ([2]; Homo sapiens, Chondrocyte, foetal calf serum, Table 14, 0-4 days, 100 μg/ml, control = 100%, read-out: PG in the culture medium, % of control): 184%
activity at 10 µg/mL ([2]; Homo sapiens, Chondrocyte, foetal calf serum, Table 14, 4-8 days, 10 μg/ml, control = 100%, read-out: PG in the culture medium, % of control): 117%
activity at 100 µg/mL ([2]; Homo sapiens, Chondrocyte, foetal calf serum, Table 14, 4-8 days, 100 μg/ml, control = 100%, read-out: PG in the culture medium, % of control): 136%
activity at 10 µg/mL ([2]; Homo sapiens, Chondrocyte, foetal calf serum, Table 15, 0-4 days, 10 μg/ml, control = 100%, read-out: PG in the culture medium, % of control): 134%
activity at 100 µg/mL ([2]; Homo sapiens, Chondrocyte, foetal calf serum, Table 15, 0-4 days, 100 μg/ml, control = 100%, read-out: PG in the culture medium, % of control): 149%
activity at 10 µg/mL ([2]; Homo sapiens, Chondrocyte, foetal calf serum, Table 15, 4-8 days, 10 μg/ml, control = 100%, read-out: PG in the culture medium, % of control): 125%
activity at 100 µg/mL ([2]; Homo sapiens, Chondrocyte, foetal calf serum, Table 15, 4-8 days, 100 μg/ml, control = 100%, read-out: PG in the culture medium, % of control): 137%
activity at 10 µg/mL ([2]; Homo sapiens, Chondrocyte, foetal calf serum, Table 16, 0-8 days, 10 μg/ml, control = 100%, read-out: PG in the clusters over 8 days, % of control): 141%
activity at 100 µg/mL ([2]; Homo sapiens, Chondrocyte, foetal calf serum, Table 16, 0-8 days, 100 μg/ml, control = 100%, read-out: PG in the clusters over 8 days, % of control): 146%
activity at 10 µg/mL ([2]; Homo sapiens, Chondrocyte, foetal calf serum, Table 17, 0-8 days, 10 μg/ml, control = 100%, read-out: PG in the clusters over 8 days, % of control): 126%
activity at 100 µg/mL ([2]; Homo sapiens, Chondrocyte, foetal calf serum, Table 17, 0-8 days, 100 μg/ml, control = 100%, read-out: PG in the clusters over 8 days, % of control): 144%
PGs in the clusters, effect in words ([2]; foetal calf serum, 10 and 100 μg/ml): significantly increased
PG in the culture medium ([2]; foetal calf serum, Table 14, 0-4 days, 10 μg/ml): 7.6 ± 0.41 μg/μg DNA - 96 H
PG in the culture medium ([2]; foetal calf serum, Table 14, 0-4 days, 100 μg/ml): 11.9 ± 2.09 μg/μg DNA - 96 H
PG in the culture medium ([2]; foetal calf serum, Table 14, 4-8 days, 10 μg/ml): 2.32 ± 0.21 μg/μg DNA - 96 H
PG in the culture medium ([2]; foetal calf serum, Table 14, 4-8 days, 100 μg/ml): 2.71 ± 0.24 μg/μg DNA - 96 H
PG in the culture medium ([2]; foetal calf serum, Table 15, 0-4 days, 10 μg/ml): 7.1 ± 0.36 μg/μg DNA - 96 H
PG in the culture medium ([2]; foetal calf serum, Table 15, 0-4 days, 100 μg/ml): 7.9 ± 0.30 μg/μg DNA - 96 H
PG in the culture medium ([2]; foetal calf serum, Table 15, 4-8 days, 10 μg/ml): 2.1 ± 1.16 μg/μg DNA - 96 H
PG in the culture medium ([2]; foetal calf serum, Table 15, 4-8 days, 100 μg/ml): 2.3 ± 0.13 μg/μg DNA - 96 H
PG in the clusters over 8 days ([2]; foetal calf serum, Table 16, 0-8 days, 10 μg/ml): 1108 ± 166 ng/μg DNA
PG in the clusters over 8 days ([2]; foetal calf serum, Table 16, 0-8 days, 100 μg/ml): 1142 ± 110 ng/μg DNA
PG in the clusters over 8 days ([2]; foetal calf serum, Table 17, 0-8 days, 10 μg/ml): 724.0 ± 72.45 ng/μg DNA
PG in the clusters over 8 days ([2]; foetal calf serum, Table 17, 0-8 days, 100 μg/ml): 832.0 ± 59.10 ng/μg DNA
